Source: publication PMC10122656, “Siglec-6 mediates the uptake of extracellular vesicles through a noncanonical glycolipid binding pocket” (Nature Communications, 2023)
“And” between values parts separate entries of the source, which are not always exact repeats. Equal entries are not always repeated.

Key:
Experiment in all cases: Cell assay (liposome/EV binding, flow cytometry)
Format in all cases: cell-based
WT Siglec-1 CHO cells = target: T1, WT Siglec-1 CHO cells (Homo sapiens, UniProt Q9BZZ2); design: GM1 liposome binding to Siglec-1 CHO cells, flow cytometry (Fig. 1b) / Binding of liposomes with increasing ganglioside content against Siglec-1 CHO cells (Fig. 1c) / Liposome binding to Siglec-1-expressing CHO cells in the cell assay (Fig. 1f): unit not given here; details: for log10(MFI AF647) of GLL relative to log10(MFI AF647) of the same GLL against UT CHO cells (Fig. 2a): Sig-1 WT, 3 mol% ganglioside liposomes; for log10(MFI AF647) of GLL relative to log10(MFI AF647) of the same GLL against UT CHO cells (Fig. 2a) / Binding of liposomes with increasing ganglioside content against Siglec-1 CHO cells (Fig. 1c) / Liposome binding to Siglec-1-expressing CHO cells in the cell assay (Fig. 1f): replicates; for GM1 liposome binding to Siglec-1 CHO cells, flow cytometry (Fig. 1b): 3 mol% GM1 liposomes, technical replicates; for ganglioside content threshold above which GLL binding to Siglec-1 CHO cells decreased: ganglioside titrated in GLLs
T1 construct: expressed in transfected cells
Method: (§1) Stock lipids (DSPC, Cholesterol, PEG45–DSPE) solutions were prepared by solvating the lipids in chloroform. An appropriate volume of each lipid solution was transferred to a glass test tube to reach the desired mol% of the component. The chloroform was then removed under N2 gas to yield a lipid thin film. Once dry, 100 µL of DMSO was added to the lipid-containing test tube and then the functional lipids (ganglioside, AF647–PEG45–DSPE, Siglec ligand–PEG45–DSPE, pHrodo–PEG45–DSPE, NGL) was added from their respect DMSO stock solution. The lipid mixture was then stored at −80 °C until completely frozen at which point excess DMSO was removed via lyophilization. Dry lipids were then stored at −80 °C until they were extruded. Lipid suppliers can be found in Supplementary Table 4.
(§2) Dry lipids were then hydrated in 1 mL of PBS. The lipids were then sonicated in a bath sonicator in a cycle of 1 min on, 5 min off for a total of five cycles. Liposomes were then extruded using an Avanti mini extruder first using an 800 nm filter and then a 100 nm filter yielding liposomes that were 130 ± 35 nm (Supplementary Table 5) measured using a Malvern Panalytical Zetasizer Nano S. Liposomes were stored at 4 °C.
(§3) 200,000 cells/well were plated into a 96-well U-bottom microplate and centrifuged at 300 × g for 5 min. The cells were then resuspended in 50 µL of 50 µM liposome/50 µg/mL (protein concentration) of EV solution in DMEM F12 5% FBS and incubated at 37 °C for 30 min. Excess liposomes were then removed via centrifuged at 300 × g for 5 min followed by washing the cells with FACS solution. The cells were then resuspended in (1:250 V/V) anti-Siglec-flow buffer (1% V/V FBS, 500 µM, EDTA Hank’s Balanced Salt Solution pH 7.4), solution and left to rest on ice for 30 min. The cells were then centrifuged again at 300 × g for 5 min and the cells were resuspended in FACS buffer solution and were then ready for analysis by flow cytometry. Information regarding antibody clone, catalog number supplier, label isotype, and dilution can be found in Supplementary Table 6. The Siglec-positive cells were gated on for liposome-binding analysis (Supplementary Fig. 1b).
(§4) Flow cytometry measurements were collected on a 5-laser Fortessa X-20 (BD Bioscience). All the resulting data were analyzed using FlowJo (10.5.3) software (BD Biosciences).

Siglec-9 WT CHO cells = target: T2, Siglec-9 WT CHO cells (Homo sapiens, UniProt Q9Y336); details: for log10(MFI AF647) of GLL relative to log10(MFI AF647) of the same GLL against UT CHO cells (Fig. 2a): Sig-9 WT†, † after treatment of cells with neuraminidase, 3 mol% ganglioside liposomes, replicates
T2 construct: expressed in transfected cells
Method: as §1, §2, §3, §4
(§5) Cells were harvested and resuspended in complete media with either Neuraminidase A or S. The cells were then placed in a 37 °C shaking incubator for 1 h. The cells were then washed with complete media and then the liposome binding assay was performed as described above.

Siglec-7 WT CHO cells = target: T3, Siglec-7 WT CHO cells (Homo sapiens, UniProt Q9Y286); details: for log10(MFI AF647) of GLL relative to log10(MFI AF647) of the same GLL against UT CHO cells (Fig. 2a): Sig-7 WT†, † after treatment of cells with neuraminidase, 3 mol% ganglioside liposomes, replicates
T3 construct: expressed in transfected cells
Method: as §1, §2, §3, §4, §5

Siglec-5 WT CHO cells = target: T4, Siglec-5 WT CHO cells (Homo sapiens, UniProt O15389); details: for log10(MFI AF647) of GLL relative to log10(MFI AF647) of the same GLL against UT CHO cells (Fig. 2a): Sig-5 WT†, † after treatment of cells with neuraminidase, 3 mol% ganglioside liposomes, replicates; for GLL binding to Siglec-5 (in words): cell assay, optimized liposomal formulation
T4 construct: expressed in transfected cells
T4 sequence (O15389 17-551): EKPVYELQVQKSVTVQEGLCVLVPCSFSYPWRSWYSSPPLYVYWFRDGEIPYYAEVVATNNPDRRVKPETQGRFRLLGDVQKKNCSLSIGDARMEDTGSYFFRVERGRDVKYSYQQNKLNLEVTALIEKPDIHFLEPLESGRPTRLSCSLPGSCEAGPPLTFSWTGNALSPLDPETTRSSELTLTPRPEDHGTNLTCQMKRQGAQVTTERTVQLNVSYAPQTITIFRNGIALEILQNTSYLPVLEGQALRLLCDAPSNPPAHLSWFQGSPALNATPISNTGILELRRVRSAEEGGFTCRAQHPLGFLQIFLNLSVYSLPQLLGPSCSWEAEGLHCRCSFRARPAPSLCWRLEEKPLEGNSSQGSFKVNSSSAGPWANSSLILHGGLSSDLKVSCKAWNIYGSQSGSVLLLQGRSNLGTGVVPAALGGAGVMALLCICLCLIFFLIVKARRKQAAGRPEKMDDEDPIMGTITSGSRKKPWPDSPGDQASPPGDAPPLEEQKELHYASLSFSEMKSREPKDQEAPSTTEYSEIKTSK
Method: as §1, §2, §3, §4, §5

T1 sequence (Q9BZZ2 20-1709): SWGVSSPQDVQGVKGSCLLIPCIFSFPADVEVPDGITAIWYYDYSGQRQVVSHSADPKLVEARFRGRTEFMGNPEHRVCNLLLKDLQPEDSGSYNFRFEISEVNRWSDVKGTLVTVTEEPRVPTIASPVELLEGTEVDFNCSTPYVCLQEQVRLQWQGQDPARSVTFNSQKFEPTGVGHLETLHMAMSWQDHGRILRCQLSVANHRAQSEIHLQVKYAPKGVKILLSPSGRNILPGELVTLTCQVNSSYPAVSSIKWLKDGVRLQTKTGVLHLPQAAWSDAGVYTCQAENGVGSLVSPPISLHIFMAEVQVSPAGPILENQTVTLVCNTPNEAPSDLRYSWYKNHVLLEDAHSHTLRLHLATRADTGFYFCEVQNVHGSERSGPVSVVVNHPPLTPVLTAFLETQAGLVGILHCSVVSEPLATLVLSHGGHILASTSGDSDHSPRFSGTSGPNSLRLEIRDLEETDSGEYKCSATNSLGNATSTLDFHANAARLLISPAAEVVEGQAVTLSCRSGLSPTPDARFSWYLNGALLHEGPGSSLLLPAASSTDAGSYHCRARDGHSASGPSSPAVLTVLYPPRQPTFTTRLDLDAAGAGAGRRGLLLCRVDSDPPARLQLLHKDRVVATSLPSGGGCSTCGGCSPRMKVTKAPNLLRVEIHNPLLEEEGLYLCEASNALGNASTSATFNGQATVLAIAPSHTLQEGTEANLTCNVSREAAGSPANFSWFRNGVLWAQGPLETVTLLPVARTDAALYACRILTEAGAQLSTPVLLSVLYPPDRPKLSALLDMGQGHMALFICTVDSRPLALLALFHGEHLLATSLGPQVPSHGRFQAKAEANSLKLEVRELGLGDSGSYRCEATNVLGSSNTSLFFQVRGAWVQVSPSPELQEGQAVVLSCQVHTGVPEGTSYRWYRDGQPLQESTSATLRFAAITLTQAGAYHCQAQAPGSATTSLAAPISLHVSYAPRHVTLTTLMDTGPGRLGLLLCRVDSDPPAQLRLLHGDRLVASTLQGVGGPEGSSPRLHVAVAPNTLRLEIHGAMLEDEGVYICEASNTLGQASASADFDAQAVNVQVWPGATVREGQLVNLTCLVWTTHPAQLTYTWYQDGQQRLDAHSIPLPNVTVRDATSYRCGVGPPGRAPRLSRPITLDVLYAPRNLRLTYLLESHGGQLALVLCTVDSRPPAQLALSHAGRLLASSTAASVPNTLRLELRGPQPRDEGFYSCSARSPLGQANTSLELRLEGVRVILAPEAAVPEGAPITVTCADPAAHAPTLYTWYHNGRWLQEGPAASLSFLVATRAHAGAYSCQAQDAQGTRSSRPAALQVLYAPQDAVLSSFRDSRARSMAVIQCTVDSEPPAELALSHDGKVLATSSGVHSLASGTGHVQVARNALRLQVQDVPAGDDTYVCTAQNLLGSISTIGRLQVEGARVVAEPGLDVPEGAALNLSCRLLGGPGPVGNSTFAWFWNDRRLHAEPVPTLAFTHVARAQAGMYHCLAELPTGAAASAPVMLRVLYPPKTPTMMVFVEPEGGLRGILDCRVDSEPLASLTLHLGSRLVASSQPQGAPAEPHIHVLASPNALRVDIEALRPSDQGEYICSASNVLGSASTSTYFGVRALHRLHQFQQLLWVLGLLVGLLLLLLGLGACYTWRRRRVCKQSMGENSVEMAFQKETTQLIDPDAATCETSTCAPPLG
T3 sequence (Q9Y286 19-467): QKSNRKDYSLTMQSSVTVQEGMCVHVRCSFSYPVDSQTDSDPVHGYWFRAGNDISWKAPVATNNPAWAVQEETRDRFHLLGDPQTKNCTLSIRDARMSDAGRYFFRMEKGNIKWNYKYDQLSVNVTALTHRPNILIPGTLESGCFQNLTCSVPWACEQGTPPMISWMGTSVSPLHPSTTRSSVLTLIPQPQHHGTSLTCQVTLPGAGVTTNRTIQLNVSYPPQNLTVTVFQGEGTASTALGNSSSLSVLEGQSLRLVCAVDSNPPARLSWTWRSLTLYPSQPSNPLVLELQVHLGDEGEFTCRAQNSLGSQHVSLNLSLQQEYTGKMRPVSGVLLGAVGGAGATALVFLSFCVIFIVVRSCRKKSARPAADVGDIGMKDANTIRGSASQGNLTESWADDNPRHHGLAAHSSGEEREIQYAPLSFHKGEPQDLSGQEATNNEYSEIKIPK
T2 sequence (Q9Y336 18-463): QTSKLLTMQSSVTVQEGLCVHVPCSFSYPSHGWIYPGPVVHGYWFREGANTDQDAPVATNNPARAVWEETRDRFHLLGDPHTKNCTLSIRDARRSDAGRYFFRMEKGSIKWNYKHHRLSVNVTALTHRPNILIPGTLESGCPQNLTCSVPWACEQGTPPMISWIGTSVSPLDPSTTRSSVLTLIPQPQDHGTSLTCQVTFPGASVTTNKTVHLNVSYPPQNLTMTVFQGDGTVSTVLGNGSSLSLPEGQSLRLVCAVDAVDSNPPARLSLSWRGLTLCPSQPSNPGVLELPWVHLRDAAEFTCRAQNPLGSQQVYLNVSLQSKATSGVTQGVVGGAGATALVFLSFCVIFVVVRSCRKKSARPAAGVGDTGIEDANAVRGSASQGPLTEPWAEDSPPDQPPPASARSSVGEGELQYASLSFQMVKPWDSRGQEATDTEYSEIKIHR

Substance | log10(MFI AF647) of GLL relative to log10(MFI AF647) of the same GLL against UT CHO cells (Fig. 2a) (WT Siglec-1 CHO cells) | log10(MFI AF647) of GLL relative to log10(MFI AF647) of the same GLL against UT CHO cells (Fig. 2a) (Siglec-9 WT CHO cells) | log10(MFI AF647) of GLL relative to log10(MFI AF647) of the same GLL against UT CHO cells (Fig. 2a) (Siglec-7 WT CHO cells) | log10(MFI AF647) of GLL relative to log10(MFI AF647) of the same GLL against UT CHO cells (Fig. 2a) (Siglec-5 WT CHO cells) | GLL binding to Siglec-5 (in words) (Siglec-5 WT CHO cells) | Binding of liposomes with increasing ganglioside content against Siglec-1 CHO cells (Fig. 1c) (WT Siglec-1 CHO cells; 0.0187 Ligand/nm2) | Binding of liposomes with increasing ganglioside content against Siglec-1 CHO cells (Fig. 1c) (WT Siglec-1 CHO cells; 0.056 Ligand/nm2) | Binding of liposomes with increasing ganglioside content against Siglec-1 CHO cells (Fig. 1c) (WT Siglec-1 CHO cells; 0.0933 Ligand/nm2) | Binding of liposomes with increasing ganglioside content against Siglec-1 CHO cells (Fig. 1c) (WT Siglec-1 CHO cells; 0.373 Ligand/nm2) | ganglioside content threshold above which GLL binding to Siglec-1 CHO cells decreased (WT Siglec-1 CHO cells) | other results
GT1b | 0.29 (2×) and 0.32 and 0.23 | 0.55 and 0.46 and 0.54 | 0.54 and 0.42 and 0.56 | 0.58 and 0.64 and 0.55 |  |  |  |  |  |  | 
GD1b | 0.7 and 0.71 (2×) and 0.63 | 0.27 (2×) and 0.29 | 0 and -0.03 and -0.01 | 0.26 and 0.29 and 0.23 | novel interactions were observed |  |  |  |  |  | 
GM1 | 0.34 and 0.29 and 0.27 and 0.31 | 0.3 and 0.31 (2×) | -0.1 and -0.11 and -0.08 | 0.35 (2×) and 0.26 | novel interactions were observed | 0.02 | 0.26 and 0.28 and 0.27 (2×) | 0.26 and 0.25 and 0.27 and 0.28 | 0.08 (3×) and 0.07 | 1–3 mol% | Binding of liposomes with increasing ganglioside content against Siglec-1 CHO cells (Fig. 1c) (WT Siglec-1 CHO cells; 0.0373 Ligand/nm2): 0.13 (2×) and 0.12 (2×); Binding of liposomes with increasing ganglioside content against Siglec-1 CHO cells (Fig. 1c) (WT Siglec-1 CHO cells; 0.187 Ligand/nm2): 0.19 and 0.18 (2×) and 0.16; Liposome binding to Siglec-1-expressing CHO cells in the cell assay (Fig. 1f) (WT Siglec-1 CHO cells; 3% glycolipid in liposome): 926 and 882 and 896; GM1 liposome binding to Siglec-1 CHO cells, flow cytometry (Fig. 1b) (WT Siglec-1 CHO cells; 0.2 mol% PEG45–DSPE): 1640 and 1691 and 1719 and 1798; GM1 liposome binding to Siglec-1 CHO cells, flow cytometry (Fig. 1b) (WT Siglec-1 CHO cells; 0.5 mol% PEG45–DSPE): 1529 and 1675 and 1687 and 1576 and 1551; GM1 liposome binding to Siglec-1 CHO cells, flow cytometry (Fig. 1b) (WT Siglec-1 CHO cells; 1 mol% PEG45–DSPE): 687 and 675 and 684 and 712 and 741; GM1 liposome binding to Siglec-1 CHO cells, flow cytometry (Fig. 1b) (WT Siglec-1 CHO cells; 2 mol% PEG45–DSPE): 106 and 105 and 107 and 111 and 113; GM1 liposome binding to Siglec-1 CHO cells, flow cytometry (Fig. 1b) (WT Siglec-1 CHO cells; 5 mol% PEG45–DSPE): 79 and 80 and 82 and 81; Liposome binding to Siglec-1-expressing CHO cells in the cell assay (Fig. 1f) (WT Siglec-1 CHO cells; 20% glycolipid in liposome): 316 and 299 and 296; binding to WT Siglec-1 CHO cells (in words) (WT Siglec-1 CHO cells; cell assay): No differences in binding
GM2 | 1.23 and 1.19 and 1.21 and 1.2 | 0.28 and 0.29 and 0.26 | -0.02 and 0 (2×) | 0.12 and 0.11 and 0.15 |  | 1.01 and 0.97 and 1 and 1.02 | 0.8 and 0.79 and 0.78 (2×) | 0.59 and 0.57 and 0.55 (2×) | 0.24 and 0.22 (3×) | 1–3 mol% | Binding of liposomes with increasing ganglioside content against Siglec-1 CHO cells (Fig. 1c) (WT Siglec-1 CHO cells; 0.00187 Ligand/nm2): -0.01; Binding of liposomes with increasing ganglioside content against Siglec-1 CHO cells (Fig. 1c) (WT Siglec-1 CHO cells; 0.00933 Ligand/nm2): 0.11 (2×) and 0.13 and 0.16; GLL binding to Siglec-9 (in words) (Siglec-9 WT CHO cells; cell assay, optimized liposomal formulation): novel interactions were observed
GD3 | 0.41 (3×) and 0.45 | 0.22 and 0.21 and 0.23 | 1.01 and 0.98 and 1.03 | 0.28 and 0.26 and 0.19 |  |  |  |  |  |  | GLL binding to Siglec-7 with increasing ganglioside content (in words) (Siglec-7 WT CHO cells; ganglioside titrated in GLLs, cells treated with neuraminidase S): decreased above an optimal ganglioside content
